Data taken from publication PMC11600199 (JACS Au, 2024).
In brackets after ≈: the same amount, converted by molar mass.

Columns and labels:
[1] = Chemical stability in aqueous 1 M HCl or 1 M NaOH and on shelf storage; format: physicochemical; details: aqueous 1 M hydrochloric acid or aqueous 1 M sodium hydroxide, room temperature, 1 day
[2] = human liver microsomes
[3] = Kinetic solubility in phosphate-buffered saline pH 7.4; details: 25 °C, pH 7.4, aqueous buffer, kinetic from dmso stock
Experimental pKa = format: physicochemical; details: amine hydrochlorides

| Compound | CLint [2] [mg min^–1 μL^–1] | solubility kinetic at 2 h [3] [µM] | further results |
| --- | --- | --- | --- |
| FC(F)(F)C1(c2cccnc2)CCC1 [12a] |  |  | decomposition on treatment with acid or base [1]: did not lead to any decomposition |
| CN(Cc1ccc(C(C)(C)C)cc1)Cc1cccc2ccccc12 [Butenafine] | 30 | 10 (≈ 3.17 µg/mL) |  |
| CCc1cc(C)cc(CC)c1-c1c(OC(=O)C(C)(C)C)n2n(c1=O)CCOCC2 [Pinoxaden] |  | 358 (≈ 143 µg/mL) |  |
| CC(C)(C)C(=O)NNCc1ccccc1 [Pivhydrazine] |  | ≥ 400 |  |
| CC(C)N(Cc1ccccc1)C(=O)C(C)(C)C [Tebutam] | 57 | 324 (≈ 75.6 µg/mL) |  |
| CC(C)(C)N.Cl [tert-butyl amine hydrochloride] |  |  | pKa (exp.) (Experimental pKa): 10.69 |
